target: T1, APOL1 (Homo sapiens, UniProt O14791); assay: MultiTox-Fluor Multiplex Cytotoxicity Assay in tet-inducible APOL1 T-REx-HEK293 cells (cell rescue, ratio of dead to live cells); type: cell-based; conditions: tet-inducible transgenic APOL1 T-REx-HEK293 cell lines, 50 ng/mL tet, 24 hours; read-out: IP50 (i.e., IC50 for cell proliferation)
T1 sequence (O14791 1-398 S342G/I384M): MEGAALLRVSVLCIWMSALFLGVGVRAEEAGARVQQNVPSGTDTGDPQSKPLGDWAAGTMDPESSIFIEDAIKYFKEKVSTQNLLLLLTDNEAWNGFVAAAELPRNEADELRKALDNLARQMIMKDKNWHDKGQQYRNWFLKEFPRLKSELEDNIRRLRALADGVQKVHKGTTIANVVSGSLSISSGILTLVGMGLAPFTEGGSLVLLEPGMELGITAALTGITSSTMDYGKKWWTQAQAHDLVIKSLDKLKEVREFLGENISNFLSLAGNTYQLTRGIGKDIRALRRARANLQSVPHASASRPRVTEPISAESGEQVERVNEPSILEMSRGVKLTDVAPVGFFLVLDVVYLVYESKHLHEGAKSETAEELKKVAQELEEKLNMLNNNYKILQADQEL
Procedure, shortened: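 T-REx-HEK293 cells with tet-inducible APOL1 were treated with compound (10 μM top, 10-point 3-fold dilution, duplicate) plus 50 ng/mL tetracycline for 24 h at 37° C, in DMEM with 2% tet-free FBS. MultiTox-Fluor protease signals gave a dead/live ratio, normalized to no tet (100% viability) and tet alone (0%).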

SMILES | IC50
CCc1cc2c(s1)CCO[C@@]21CCN(C[C@H]2C[C@@H](NC(=O)C3CCOC(C)(C)C3)C2)[C@@H](C)C1 (some centres unmarked) [Compound 315] | < 100 nM
COc1ncc(CN2CC[C@]3(C[C@@H]2C)OCCc2cc(CC(F)F)sc23)c(OC)n1 [Compound 593] | < 100 nM
CCc1cc2c(s1)CCO[C@@]21CCN(Cc2cn(-c3cnc(C)nc3)nn2)[C@@H](C)C1 [Compound 70] | < 100 nM
C[C@H]1C[C@@]2(CCN1Cc1cn(CCS(C)(=O)=O)nn1)OCC(F)c1cc(Cl)sc12 (stereo partly drawn) [Compound 863, (2S,4R)-2′-chloro-4′-fluoro-2-methyl-1-((1-(2-(methylsulfonyl)ethyl)-1H-1,2,3-triazol-4-yl)methyl)-4′,5′-dihydrospiro[piperidine-4,7′-thieno[2,3-c]pyran]] | 100 to 500 nM
CCc1cc2c(s1)CCO[C@@]21CCN(Cc2cn(CC(C)(C)C(C)O)nn2)[C@@H](C)C1 (some centres unmarked) [Compound 120] | 100 to 500 nM
CCc1cc2c(s1)CCOC21CCN(Cc2cn(C(C)CC(N)=O)nn2)C(C)C1 (centres unmarked) [Compound 148] | 100 to 500 nM
C[C@H]1C[C@@]2(CCN1Cc1cnn(C)c1)OCC(O)(c1ccccc1)c1cc(Cl)sc12 (stereo partly drawn) [Compound 849, (2′S,7R)-2-chloro-2′-methyl-1′-[(1-methylpyrazol-4-yl)methyl]-4-phenyl-spiro[5H-thieno[2,3-c]pyran-7,4′-piperidine]-4-ol] | 100 to 500 nM
CCCOC(=O)N[C@H]1C[C@@H](CN2CC[C@]3(C[C@@H]2C)OCCc2sc(CC)cc23)C1 [Compound 371] | < 100 nM
CCc1cc2c(s1)CCOC21CCN(Cc2cn(CC(O)CO)nn2)C(C)C1 (centres unmarked) [Compound 143] | < 100 nM
C[C@H]1C[C@@]2(CCN1C1COC1)OCCc1cc(CC(F)F)sc12 [Compound 575] | 500 to 1000 nM
Cc1ccc(CN2CC[C@]3(C[C@@H]2C)OCCc2cc(Cl)sc23)c(C)n1 [Compound 675] | 100 to 500 nM
Cc1cc2c(s1)CCO[C@@]21CCN(C2CCCC2O)[C@@H](C)C1 (some centres unmarked) [Compound 504] | 100 to 500 nM
CCc1cc2c(s1)CCOC21CCN(Cc2ccc(C(=O)NC3CC(O)C3)nc2)CC1 (centres unmarked) [Compound 1055] | < 100 nM
CCc1cc2c(s1)CCO[C@@]21CCN(C)[C@@H](C)C1 [Compound 277] | 500 to 1000 nM
CCc1cc2c(s1)CCOC21CCN(Cc2cn(CC3(OCCO)CCOC3)nn2)C(C)C1 (centres unmarked) [Compound 119] | < 100 nM
C[C@H]1C[C@@]2(CCN1Cc1cnn(C)c1)OC[C@](O)(C(F)F)c1cc(Cl)sc12 [Compound 831] | < 100 nM
CC(=O)NC1CO[C@@]2(CCN(Cc3cnn(CCS(C)(=O)=O)c3)[C@@H](C)C2)c2sc(Cl)cc21 (stereo partly drawn) [Compound 855, N-[(2′S, 7R)-2-chloro-2′-methyl-1′-[[1-(2-methylsulfonylethyl)pyrazol-4-yl]methyl]spiro[4,5-dihydrothieno[2,3-c]pyran-7,4′-piperidine]-4-yl]acetamide] | < 100 nM
Cc1cc(CN2CC[C@]3(C[C@@H]2C)OCCc2cc(CC(F)F)sc23)no1 [Compound 584] | < 100 nM
CCc1cc2c(s1)CCOC21CCN(Cc2ccc(NS(=O)(=O)C3CC3)cc2)CC1 [Compound 1163] | 100 to 500 nM
CCc1cc2c(s1)CCO[C@@]21CCN(Cc2cn(CC(CO)OC)nn2)[C@@H](C)C1 (some centres unmarked) [Compound 139] | < 100 nM

SMILES | IC50
CCc1cc2c(s1)CCO[C@@]21CCN(Cc2cn(Cc3nnc4n3CCCC4)nn2)[C@@H](C)C1 [Compound 52] | < 100 nM
C[C@H]1C[C@@]2(CCN1Cc1cnn(C[C@H](O)CO)c1)OC[C@@H](O)c1cc(C(F)(F)F)sc12 [Compound 968] | < 100 nM
CC(=O)n1cc(CN2CCC3(CC2)OCCc2sc(Cl)cc23)cn1 [Compound 1166] | 100 to 500 nM
CCc1cc2c(s1)CCO[C@@]21CCN(Cc2cn(CC3(C)CCOCC3)nn2)[C@@H](C)C1 [Compound 114] | 100 to 500 nM
CCc1cc2c(s1)CCO[C@@]21CCN(Cc2cn([C@H]3CS(=O)(=O)C[C@H]3O)nn2)[C@@H](C)C1 [Compound 62] | < 100 nM
CCOCCC(O)Cn1cc(CN2CC[C@]3(C[C@@H]2C)OCCc2c3sc(C(F)(F)F)c2CO)cn1 (some centres unmarked) [Compound 957] | < 100 nM
CCc1cc2c(s1)CCO[C@@]21CCN(Cc2cn(C3CS(=O)(=O)C3)nn2)[C@@H](C)C1 [Compound 29] | < 100 nM
CCc1cc2c(s1)CCOC21CCN(Cc2cn(CCS(=O)(=O)NC)nn2)CC1 [Compound 1083] | 500 to 1000 nM
COC1CO[C@@]2(CCN(Cc3cnn(CCS(C)(=O)=O)c3)[C@@H](C)C2)c2sc(Cl)cc21 (single isomer, unassigned) [Compound 843, (2′S, 7R)-2-chloro-4-methoxy-2′-methyl-1′-[[1-(2-methylsulfonylethyl)pyrazol-4-yl]methyl]spiro[4,5-dihydrothieno[2,3-c]pyran-7,4′-piperidine]] | < 100 nM
Cc1cnc(Cn2cc(CN3CC[C@]4(C[C@@H]3C)OCCc3c4sc(C(F)(F)F)c3CO)cn2)cn1 [Compound 912] | < 100 nM
C[C@H]1C[C@@]2(CCN1Cc1cnn(CC3(C)COC3)c1)OCCc1cc(Cl)sc12 [Compound 633] | < 100 nM
CCc1cc2c(s1)CCO[C@@]21CCN(Cc2cn(CC3COCCN3)nn2)[C@@H](C)C1 (some centres unmarked) [Compound 95] | < 100 nM
CCc1cc2c(s1)CCOC21CCN(Cc2cnc(-c3ccccn3)s2)CC1 [Compound 1140] | 500 to 1000 nM
CCc1cc2c(s1)CCO[C@@]21CCN(CC(C)O)[C@@H](C)C1 (some centres unmarked) [Compound 242] | 100 to 500 nM
CCc1cc2c(s1)CCOC21CCN(Cc2cnn(CCS(C)(=O)=O)c2)CC1 [Compound 1130] | 100 to 500 nM
C[C@H]1C[C@@]2(CCN1Cc1cccc(F)c1)OCCc1cc(Cl)sc12 [Compound 688] | 500 to 1000 nM
COc1cc(OCC(N)=O)ccc1CN1CC[C@@]2(C[C@H]1C)OCCc1cc(Cl)sc12 [Compound 655] | < 100 nM
C[C@H]1C[C@@]2(CCN1Cc1cn(CC(C)(CO)CO)nn1)OCCc1c2sc(C(F)(F)F)c1CO [Compound 1003] | < 100 nM
C[C@H]1C[C@@]2(CCN1Cc1cnn(CC(O)C3CCCO3)c1)OCCc1c2sc(C(F)(F)F)c1CO (some centres unmarked) [Compound 964] | < 100 nM
CCc1cc2c(s1)CCO[C@@]21CCN(CC2CN(C(=O)CS(=O)(=O)c3ccccc3)C2)[C@@H](C)C1 [Compound 456] | 100 to 500 nM

SMILES | IC50
C[C@H]1C[C@@]2(CCN1Cc1cccc(F)c1O)OC[C@H](O)c1cc(Cl)sc12 [Compound 801] | 500 to 1000 nM
CCc1cc2c(s1)CCOC21CCN(Cc2cn(CC3(O)CCOC3)nn2)C(C)C1 (centres unmarked) [Compound 77] | 500 to 1000 nM
CCCC(O)Cn1cc(CN2CC[C@]3(C[C@@H]2C)OCCc2sc(CC)cc23)nn1 (some centres unmarked) [Compound 85] | < 100 nM
C[C@H]1C[C@@]2(CCN1Cc1cnn(C[C@H](O)C(N)=O)c1)OC[C@@H](O)c1cc(C(F)(F)F)sc12 [Compound 996] | < 100 nM
CCc1cc2c(s1)CCO[C@@]21CCN(Cc2cn(CCS(=O)(=O)NC)nn2)[C@@H](C)C1 [Compound 12, 2-[4-[[(2′S)-2-ethyl-2′-methyl-spiro[6,7-dihydrothieno[3,2-c]pyran-4,4′-piperidine]-1′-yl]methyl]triazol-1-yl]-N-methyl-ethanesulfonamide] | < 100 nM
C[C@H]1C[C@@]2(CCN1Cc1cn(CCS(C)(=O)=O)nn1)OCCc1cc(Cl)sc12 [Compound 696, (2′S, 7R)-2-chloro-2′-methyl-1′-[[1-(2-methylsulfonylethyl)triazol-4-yl]methyl]spiro[4,5-dihydrothieno[2,3-c]pyran-7,4-piperidine]] | 100 to 500 nM
CCc1cc2c(s1)CCO[C@@]21CCN(CCOC)[C@@H](C)C1 [Compound 278, (2′S,4R)-2-ethyl-1′-(2-methoxyethyl)-2′-methyl-spiro[6,7-dihydrothieno[3,2-c]pyran-4,4′-piperidine]] | 100 to 500 nM
C[C@H]1C[C@@]2(CCN1Cc1cnn(CC(O)CO)c1)OCCc1c2sc(C(F)(F)F)c1CO (some centres unmarked) [Compound 934] | < 100 nM
CCc1cc2c(s1)CCO[C@@]21CCN(Cc2cn(CCn3cccn3)nn2)[C@@H](C)C1 [Compound 46] | 100 to 500 nM
CCc1cc2c(s1)CCOC21CCN(Cc2ccc(C(=O)NCCO)nc2)CC1 [Compound 1056] | 100 to 500 nM
C[C@H]1C[C@@]2(CCN1Cc1ccnn1C)OCCc1cc(Cl)sc12 [Compound 681] | 500 to 1000 nM
CCc1cc2c(s1)CCO[C@@]21CCN(Cc2cn(CCS(=O)(=O)C(C)C)nn2)[C@@H](C)C1 [Compound 160] | < 100 nM
CCc1cc2c(s1)CCOC21CCN(Cc2cn(CC3(O)CCCC3)nn2)CC1 [Compound 1082] | 100 to 500 nM
CCc1cc2c(s1)CCO[C@@]21CCN(CC(O)CO)[C@@H](C)C1 (some centres unmarked) [Compound 281] | 100 to 500 nM
CCc1cc2c(s1)CCO[C@@]21CCN(C[C@H]2C[C@@H](NS(=O)(=O)c3ccc4[nH]c(=O)[nH]c4c3)C2)[C@@H](C)C1 [Compound 416] | 100 to 500 nM
CCc1cc2c(s1)CCO[C@@]21CCN(Cc2cn(C3CN(S(C)(=O)=O)C3)nn2)[C@@H](C)C1 [Compound 162] | < 100 nM
CCc1cc2c(s1)CCO[C@@]21CCN(C[C@H]2C[C@@H](NC(=O)Cn3cncn3)C2)[C@@H](C)C1 [Compound 354] | 100 to 500 nM
CCc1cc2c(s1)CCO[C@@]21CCN(Cc2ccc(NS(C)(=O)=O)cc2)[C@@H](C)C1 [Compound 274] | < 100 nM
CCc1cc2c(s1)CCO[C@@]21CCN(Cc2cn(Cc3cnn(C)c3C)nn2)[C@@H](C)C1 [Compound 44] | < 100 nM
